Test results taken from PubChem BioAssay AID1963870 (Molecular Pharmacology Branch, DTP, NCI, 2024).

Test system: 292921-168-R-J2-PDC KRAS tumor spheroid viability
Experiment: Anticancer human tumor 292921-168-R-J2-PDC patient-derived pancreatic carcinoma cell line growth inhibition [KRAS2]
Details: spheroids with HUVEC and MSC; for IC50: curve of first compound; for viability, T/C: stronger effect = lower value
How it was run: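 Combination screen of spheroid viability in tumor-cell co-cultures with endothelial (HUVEC) and mesenchymal stem cell stroma. Each agent was tested in half-log dilutions, topping at clinical Cmax or at 10 microM without a known Cmax.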

[1] = second compound 0.1 µM, first compound 0.000316 µM
[2] = second compound 0.1 µM, first compound 0.001 µM
[3] = second compound 0.1 µM, first compound 0.00316 µM
[4] = second compound 0.1 µM, first compound 0.01 µM
[5] = second compound 0.1 µM, first compound 0.0316 µM
[6] = second compound 0.1 µM, first compound 0.1 µM
[7] = second compound 0.316 µM, first compound 0.000316 µM
[8] = second compound 0.316 µM, first compound 0.001 µM
[9] = second compound 0.316 µM, first compound 0.00316 µM
[10] = second compound 0.316 µM, first compound 0.01 µM
[11] = second compound 0.316 µM, first compound 0.0316 µM
[12] = second compound 0.316 µM, first compound 0.1 µM
[13] = second compound 1 µM, first compound 0.000316 µM
[14] = second compound 1 µM, first compound 0.001 µM
[15] = second compound 1 µM, first compound 0.00316 µM
[16] = second compound 1 µM, first compound 0.01 µM
[17] = second compound 1 µM, first compound 0.0316 µM
[18] = second compound 1 µM, first compound 0.1 µM
[19] = second compound 3.16 µM, first compound 0.000316 µM
[20] = second compound 3.16 µM, first compound 0.001 µM
[21] = second compound 3.16 µM, first compound 0.00316 µM
[22] = second compound 3.16 µM, first compound 0.01 µM
[23] = second compound 3.16 µM, first compound 0.0316 µM
[24] = second compound 3.16 µM, first compound 0.1 µM
[25] = second compound 10 µM, first compound 0.000316 µM
[26] = second compound 10 µM, first compound 0.001 µM
[27] = second compound 10 µM, first compound 0.00316 µM
[28] = second compound 10 µM, first compound 0.01 µM
[29] = second compound 10 µM, first compound 0.0316 µM
[30] = second compound 10 µM, first compound 0.1 µM
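Also: drug exposure lasted seven days after spheroids formed for three days.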
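For viability, T/C in this document: percent of DMSO vehicle control viability which is 100%.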

SMILES	IC50 (second compound 0.1 µM)	IC50 (second compound 0.316 µM)	IC50 (second compound 1 µM)	IC50 (second compound 3.16 µM)	IC50 (second compound 10 µM)	viability, T/C [1]	viability, T/C [2]	viability, T/C [3]	viability, T/C [4]	viability, T/C [5]	viability, T/C [6]	viability, T/C [7]	viability, T/C [8]	viability, T/C [9]	viability, T/C [10]	viability, T/C [11]	viability, T/C [12]	viability, T/C [13]	viability, T/C [14]	viability, T/C [15]	further results
CC(C)n1nc(-c2ccc3oc(N)nc3c2)c2c(N)ncnc21 + COc1cc2nc(C)nc(NC(C)c3cc(N)cc(C(F)(F)F)c3)c2cc1OC1CCOC1	3.29 nM	3.94 nM	2.72 nM	1.34 nM	< 0.316 nM	35%	74.8%	46.2%	38.8%	28.1%	26.2%	88%	73.2%	53.6%	35.7%	29.4%	24.1%	81.1%	68.9%	47%	viability, T/C [16]: 30.5%; viability, T/C [17]: 23.7%; viability, T/C [18]: 21.2%; viability, T/C [19]: 64.9%; viability, T/C [20]: 54.2%; viability, T/C [21]: 37.8%; viability, T/C [22]: 26.3%; viability, T/C [23]: 23.8%; viability, T/C [24]: 20.6%; viability, T/C [25]: 32.7%; viability, T/C [26]: 26.4%; viability, T/C [27]: 24.3%; viability, T/C [28]: 17.7%; viability, T/C [29]: 16.7%; viability, T/C [30]: 15.5%
CC(C)n1nc(-c2ccc3oc(N)nc3c2)c2c(N)ncnc21 + C=CC(=O)N1CCN(c2nc(=O)n(-c3c(C)ccnc3C(C)C)c3nc(-c4c(O)cccc4F)c(F)cc23)C(C)C1	6.89 nM	9.61 nM	11.7 nM	4.93 nM	< 0.316 nM	107%	88.6%	62%	44.5%	32.8%	27%	111%	99.7%	66.9%	53.6%	33.6%	29.7%	121%	99.7%	77.1%	viability, T/C [16]: 50.4%; viability, T/C [17]: 38.3%; viability, T/C [18]: 32.3%; viability, T/C [19]: 68.4%; viability, T/C [20]: 72.6%; viability, T/C [21]: 55.3%; viability, T/C [22]: 40.1%; viability, T/C [23]: 36.7%; viability, T/C [24]: 30.9%; viability, T/C [25]: 26.3%; viability, T/C [26]: 33.3%; viability, T/C [27]: 30%; viability, T/C [28]: 31.2%; viability, T/C [29]: 29.5%; viability, T/C [30]: 27.1%
